Among the data in patent US20250304717A1, “CAMPTOTHECIN DERIVATIVE AND LIGAND-DRUG CONJUGATE” (HAINAN SIMCERE ZAIMING PHARMACEUTICAL CO., LTD., priority 2022, published 2025) are IC50 values, retold here.

pIC50: −log10 of the molar value.

One experiment has as its system HCT116 cells. Nature of the experiment: Anti-tumor cell proliferation activity of compound of formula (D-H), Cell-Titer Glo, HCT116. The class given is cell-based. As to conditions: Homo sapiens, HCT-116, 72 h, read-out: HCT116 Antiproliferative activity IC50 (nM), HCT116 cells, 3 days. Here is the method: (§1) Cell culture: HCT116 cells and SKBR3 cells were cultured with a McCoy's 5a medium containing 10% fetal bovine serum+1% penicillin-streptomycin at 37° C. with 5% CO2, and OVCAR3 cells were cultured with a 1640 medium containing 20% fetal bovine serum+2 μg/mL bovine insulin+1% penicillin-streptomycin at 37° C. with 5% CO2. Cells at logarithmic growth phase were available for the experiment.
(§2) Cell proliferation activity test: The Cell-Titer Glo reagent was used to test the compound for inhibitory activity on proliferation of the three cell strains HCT116, SKBR3, and OVCAR3. HCT116 cells (1500 per well), SKBR3 cells (3000 per well), and OVCAR3 cells (5000 per well) were seeded on 96-well plates and incubated at 37° C. with 5% CO2 for 24 h. After a solution of the compound to be detected was added (the compound was dissolved in DMSO so that the compound concentration was 1 mM, then the compound was diluted to […] in DMSO at 9 concentrations in a 3-fold dilution, and 10 μL of the prepared compound solution was transferred to the 96-well plate so that the final concentration was 0-300 nM), the mixture was incubated at 37° C. with 5% CO2. HCT116 cells were cultured for 3 days, and SKBR3 cells and OVCAR3 cells were cultured for 5 days. The Cell-Titer Glo reagent was added and the cell activity was measured.
(§3) A negative control group and a positive control group were respectively used as Bottom and Top. The negative control group was not added with cells, only added with the culture medium in the same volume, and other operations were consistent with those of the experimental group. The positive control group was not added with the test drug, and other operations were consistent with those of the experimental group.
(§4) Data analysis: % Inhibition was calculated, and compound IC50 was fitted.
(§5) % Inhibition=1-100%×(Signal−Bottom)/(Top−Bottom).
(§6) Signal referred to the signal value of the experimental group, Bottom referred to the average signal value of the negative control group, and Top referred to the average signal value of the positive control group.
For `CC[C@@]1(O)C(=O)OCc2c1cc1n(c2=O)Cc2c-1nc1ccc3c(c1c2CNC(=O)CO)CCC3` [Compound 7, (S)-N-((8-ethyl-8-hydroxy-9,12-dioxo-2,3,8,9,12,14-hexahydro-1H,11H-cyclopenta[f]pyrano[3′,4′:6,7]indolizino[1,2-b]quinolin-15-yl)methyl)-2-hydroxyacetamide], the IC50 (usually the concentration that gives 50% inhibition) lay within 10 to 100 nM.
The same measure, in the same setting: the same measure for `CC[C@@]1(O)C(=O)OCc2c1cc1n(c2=O)Cc2c-1nc1cnc(Br)cc1c2CNC(=O)CO` [Compound 15, (S)-N-((9-bromo-4-ethyl-4-hydroxy-3,14-dioxo-3,4,12,14-tetrahydro-1H-pyrano[3′,4′:6,7]indolizino[1,2-b][1,7]naphthyridin-11-yl)methyl)-2-hydroxyacetamide]: 10 to 100 nM; for `[2H]C1([2H])Oc2cc3nc4c(c(CNC(=O)C(O)C5CC5)c3cc2O1)Cn1c-4cc2c(c1=O)COC(=O)[C@]2(O)CC` (stereo partly drawn) [Compound 19, 2-cyclopropyl-N—(((S)-7-ethyl-7-hydroxy-8,11-dioxo-7,8,11,13-tetrahydro-10H-[1,3]dioxolo[4,5-g]pyrano[3′,4′:6,7]indolizino[1,2-b]quinolin-14-yl-2,2-d2)methyl)-2-hydroxyacetamide]: less than 10 nM.
Still for that read-out and setting: the same measure for `CC[C@@]1(O)C(=O)OCc2c1cc1n(c2=O)Cc2c-1nc1cc(Cl)c3occc3c1c2CNC(=O)CO` [Compound 27, (S)-N-((4-chloro-8-ethyl-8-hydroxy-9,12-dioxo-8,9,12,14-tetrahydro-11H-furo[3,2-f]pyrano[3′,4′:6,7]indolizino[1,2-b]quinolin-15-yl)methyl)-2-hydroxyacetamide]: 10 to 100 nM.
The same measure, in the same setting: the same measure for `CC[C@@]1(O)C(=O)OCc2c1cc1n(c2=O)Cc2c-1nc1cc(Cl)c3occc3c1c2CNC(=O)C(O)C1CC1` (stereo partly drawn) [Compound 28, N—(((S)-4-chloro-8-ethyl-8-hydroxy-9,12-dioxo-8,9,12,14-tetrahydro-11H-furo[3,2-f]pyrano[3′,4′:6,7]indolizino[1,2-b]quinolin-15-yl)methyl)-2-cyclopropyl-2-hydroxyacetamide]: less than 10 nM.
As to `CC[C@@]1(O)C(=O)OCc2c1cc1n(c2=O)Cc2c-1nc1cc3c(c([N+](=O)[O-])c1c2CNC(=O)C(O)C1CC1)OCO3` (stereo partly drawn) [Compound 29, 2-cyclopropyl-N—(((S)-7-ethyl-7-hydroxy-15-nitro-8,11-dioxo-7,8,11,13-tetrahydro-10H-[1,3]dioxolo[4,5-g]pyrano[3′,4′:6,7]indolizino[1,2-b]quinolin-14-yl)methyl)-2-hydroxyacetamide], the IC50 was 10 to 100 nM.

The same experiment, now with this note: Homo sapiens, HCT-116, 72 h; HCT116 cells, 3 days; read-out: HCT116 Antiproliferative activity IC50.
For the compound `CC[C@@]1(O)C(=O)OCc2c1cc1n(c2=O)Cc2c-1nc1cc3c(c(F)c1c2CNC(=O)[C@@H](O)C1CC1)OCO3` [Compound 35-P1, 2-cyclopropyl-N-(((S)-7-ethyl-15-fluoro-7-hydroxy-8,11-dioxo-7,8,11,13-tetrahydro-10H-[1,3]dioxolo[4,5-g]pyrano[3′,4′:6,7]indolizino[1,2-b]quinolin-14-yl)methyl)-2-hydroxyacetamide], the negative logarithm of the IC50 (pIC50) – broadly, −log10 of the IC50, conventionally taken in molar units – was more than 8.00.

The next experiment has as its system SKBR3 cells. Nature of the experiment: Anti-tumor cell proliferation activity of compound of formula (D-H), Cell-Titer Glo, SKBR3. The format is cell-based, human. To be noted: Homo sapiens, SK-BR-3, 120 h, read-out: SKBR3 Antiproliferative activity IC50 (nM), SKBR3 cells, 5 days. Here is the method:
as §1, §2, §3, §4, §5, §6
In the case of `CC[C@@]1(O)C(=O)OCc2c1cc1n(c2=O)Cc2c-1nc1cc3c(cc1c2CNC(=O)CO)OCCO3` [Compound 1, (S)-N-((8-ethyl-8-hydroxy-9,12-dioxo-2,3,8,9,12,14-hexahydro-11H-[1,4]dioxino[2,3-g]pyrano[3′,4′:6,7]indolizino[1,2-b]quinolin-15-yl)methyl)-2-hydroxyacetamide], the IC50 stood at 8.5 nM.
Same read-out and setting: then `CC[C@@]1(O)C(=O)OCc2c1cc1n(c2=O)Cc2c-1nc1cc(F)c(Cl)cc1c2CNC(=O)CO` [Compound 3, (S)-N-((9-chloro-4-ethyl-8-fluoro-4-hydroxy-3,14-dioxo-3,4,12,14-tetrahydro-1H-pyrano[3′,4′:6,7]indolizino[1,2-b]quinolin-11-yl)methyl)-2-hydroxyacetamide], with 3.6 nM.
